# Assay results published in BindingDB's records for patent US10065963 (Incyte Corporation, 2018).
# Columns and labels:
# [1] = target: T1, Phosphatidylinositol 4,5-bisphosphate 3-kinase catalytic subunit delta isoform (Homo sapiens, UniProt O00329); assay: PI3K-delta Scintillation Proximity Assay; details: pH 6.7; 25 °C
# T1 sequence (O00329 whole entry): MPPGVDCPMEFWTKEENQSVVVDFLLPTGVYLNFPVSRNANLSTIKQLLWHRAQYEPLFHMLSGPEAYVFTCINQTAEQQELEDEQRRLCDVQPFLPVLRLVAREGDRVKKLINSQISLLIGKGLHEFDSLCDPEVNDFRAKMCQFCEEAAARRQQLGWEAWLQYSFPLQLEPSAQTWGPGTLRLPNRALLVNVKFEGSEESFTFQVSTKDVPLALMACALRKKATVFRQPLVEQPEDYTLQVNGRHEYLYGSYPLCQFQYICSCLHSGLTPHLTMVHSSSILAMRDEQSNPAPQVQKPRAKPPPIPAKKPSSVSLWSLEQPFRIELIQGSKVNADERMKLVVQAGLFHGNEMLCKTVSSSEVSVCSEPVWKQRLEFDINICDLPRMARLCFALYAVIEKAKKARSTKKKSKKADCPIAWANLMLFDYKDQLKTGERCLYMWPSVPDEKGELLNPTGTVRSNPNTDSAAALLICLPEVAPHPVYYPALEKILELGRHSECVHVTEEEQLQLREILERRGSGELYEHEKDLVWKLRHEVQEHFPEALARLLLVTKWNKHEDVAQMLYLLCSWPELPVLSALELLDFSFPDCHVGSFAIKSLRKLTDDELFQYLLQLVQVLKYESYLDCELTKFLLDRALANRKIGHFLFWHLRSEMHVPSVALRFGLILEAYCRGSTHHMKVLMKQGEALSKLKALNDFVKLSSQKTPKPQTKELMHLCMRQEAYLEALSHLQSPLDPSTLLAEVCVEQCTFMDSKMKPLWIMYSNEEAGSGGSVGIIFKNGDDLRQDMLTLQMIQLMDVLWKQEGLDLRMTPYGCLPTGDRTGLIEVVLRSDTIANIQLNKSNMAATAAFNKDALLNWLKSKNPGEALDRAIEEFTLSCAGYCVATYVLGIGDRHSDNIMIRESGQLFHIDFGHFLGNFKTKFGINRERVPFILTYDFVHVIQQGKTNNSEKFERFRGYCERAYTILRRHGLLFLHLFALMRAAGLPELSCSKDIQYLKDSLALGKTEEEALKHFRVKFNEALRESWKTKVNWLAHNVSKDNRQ
# [2] = target: Phosphatidylinositol 4,5-bisphosphate 3-kinase catalytic subunit gamma isoform (Homo sapiens, UniProt P48736); assay: PI3K-gamma Scintillation Proximity Assay; details: pH 6.7; 25 °C
# Protocol: PI3Kγ (p110γ) Recombinant Human Protein was purchased from Life technology (Grand Island, N.Y.). […] The final concentration of DMSO in the assay was 2%. […] ATP, 13 nM PI3Kγ. […] The final concentration of SPA beads is 1.0 mg/mL.
# [3] = target: Tyrosine-protein kinase JAK1 (Homo sapiens, UniProt P23458); assay: In Vitro JAK Kinase Assay; details: pH 7.8; 25 °C
# Sequence of Tyrosine-protein kinase JAK1 (P23458 whole entry): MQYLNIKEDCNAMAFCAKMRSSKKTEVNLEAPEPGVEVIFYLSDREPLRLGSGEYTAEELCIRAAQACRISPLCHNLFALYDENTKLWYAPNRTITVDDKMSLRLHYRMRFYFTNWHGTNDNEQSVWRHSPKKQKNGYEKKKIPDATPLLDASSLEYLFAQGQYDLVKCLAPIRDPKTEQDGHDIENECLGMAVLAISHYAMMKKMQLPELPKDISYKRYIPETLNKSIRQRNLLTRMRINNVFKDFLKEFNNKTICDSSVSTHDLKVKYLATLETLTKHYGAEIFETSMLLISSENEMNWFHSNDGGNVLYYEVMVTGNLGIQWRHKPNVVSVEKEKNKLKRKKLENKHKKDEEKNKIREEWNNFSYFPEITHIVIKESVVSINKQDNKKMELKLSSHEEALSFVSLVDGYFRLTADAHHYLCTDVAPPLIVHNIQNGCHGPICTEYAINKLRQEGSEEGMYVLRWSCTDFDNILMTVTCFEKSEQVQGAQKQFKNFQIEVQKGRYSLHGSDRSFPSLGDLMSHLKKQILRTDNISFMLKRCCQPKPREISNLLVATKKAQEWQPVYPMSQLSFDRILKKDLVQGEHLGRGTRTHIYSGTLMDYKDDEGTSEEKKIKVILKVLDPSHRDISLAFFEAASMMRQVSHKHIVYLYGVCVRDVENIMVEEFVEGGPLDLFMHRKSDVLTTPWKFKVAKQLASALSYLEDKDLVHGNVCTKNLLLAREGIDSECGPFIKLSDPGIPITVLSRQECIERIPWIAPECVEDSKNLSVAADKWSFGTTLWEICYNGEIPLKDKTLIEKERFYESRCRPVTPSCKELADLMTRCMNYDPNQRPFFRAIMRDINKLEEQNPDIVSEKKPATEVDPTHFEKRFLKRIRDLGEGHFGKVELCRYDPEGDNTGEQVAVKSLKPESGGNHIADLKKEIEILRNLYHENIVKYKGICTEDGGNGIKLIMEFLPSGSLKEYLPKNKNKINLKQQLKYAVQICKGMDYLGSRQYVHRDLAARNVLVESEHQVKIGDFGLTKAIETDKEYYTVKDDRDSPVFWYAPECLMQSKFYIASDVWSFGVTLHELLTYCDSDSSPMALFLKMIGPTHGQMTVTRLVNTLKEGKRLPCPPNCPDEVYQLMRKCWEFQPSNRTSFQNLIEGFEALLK
# Sequence of Phosphatidylinositol 4,5-bisphosphate 3-kinase catalytic subunit gamma isoform (P48736 whole entry, canonical isoform): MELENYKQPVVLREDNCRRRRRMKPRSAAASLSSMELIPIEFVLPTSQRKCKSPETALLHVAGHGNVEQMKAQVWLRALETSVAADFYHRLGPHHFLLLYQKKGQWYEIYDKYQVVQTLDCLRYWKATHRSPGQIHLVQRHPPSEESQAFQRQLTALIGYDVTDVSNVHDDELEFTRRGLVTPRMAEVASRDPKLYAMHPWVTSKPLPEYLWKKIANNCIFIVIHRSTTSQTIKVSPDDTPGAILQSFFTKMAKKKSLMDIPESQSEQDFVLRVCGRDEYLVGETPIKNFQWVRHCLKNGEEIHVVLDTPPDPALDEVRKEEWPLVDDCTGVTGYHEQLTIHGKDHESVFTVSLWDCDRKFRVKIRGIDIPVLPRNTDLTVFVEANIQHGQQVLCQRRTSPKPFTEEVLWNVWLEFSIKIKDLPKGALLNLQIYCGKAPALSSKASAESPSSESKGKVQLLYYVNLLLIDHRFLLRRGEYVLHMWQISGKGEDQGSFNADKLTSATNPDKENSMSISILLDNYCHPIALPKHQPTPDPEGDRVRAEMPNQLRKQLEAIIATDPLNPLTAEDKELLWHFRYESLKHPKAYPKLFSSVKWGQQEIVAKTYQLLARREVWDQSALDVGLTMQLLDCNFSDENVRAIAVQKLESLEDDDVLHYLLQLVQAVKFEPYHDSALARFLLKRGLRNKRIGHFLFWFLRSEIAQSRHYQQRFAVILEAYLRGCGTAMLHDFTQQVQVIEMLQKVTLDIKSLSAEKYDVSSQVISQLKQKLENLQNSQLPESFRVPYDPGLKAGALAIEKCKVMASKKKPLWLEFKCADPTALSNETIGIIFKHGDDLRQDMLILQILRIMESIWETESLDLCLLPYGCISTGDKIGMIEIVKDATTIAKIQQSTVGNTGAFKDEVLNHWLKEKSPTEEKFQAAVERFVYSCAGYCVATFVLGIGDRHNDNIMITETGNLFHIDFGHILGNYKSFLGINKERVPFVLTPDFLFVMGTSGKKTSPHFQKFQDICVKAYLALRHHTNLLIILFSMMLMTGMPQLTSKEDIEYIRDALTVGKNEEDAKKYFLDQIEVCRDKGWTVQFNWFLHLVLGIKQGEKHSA
IC50 [3] [nM],SMILES,IC50 [1] [nM],IC50 [2] [nM]
,"C[C@H](NC(=O)c1c(N)nn2cccnc12)c1cc(Cl)c2cncn2c1N1CCS(=O)(=O)[C@@H](C)C1 [US10065963, Example 31B]",< 100,< 100
< 100,"N#CCC(CN1CCN(C(=O)c2ccc(C#N)cc2F)CC1)n1cc(-c2ncnc3[nH]ccc23)cn1 (stereo not drawn) [US10065963, Compound 5]",,
